# In patent US20110160303A1, “N-ALKYLCARBONYL-AMINO ACID ESTER AND N-ALKYLCARBONYL-AMINO LACTONE COMPOUNDS AND THEIR USE” (Edward Tak WEI, priority 2005, published 2011):
# Entries after “also recorded” stand apart in the source; their conditions may differ.
# Assays:
# [1] = tested on: asthma; test: Study 10: adult-onset asthma, throat irritation and cough; type: in vivo, human
# Protocol: A person had adult-onset asthma for 20 years. Triggers for attacks were tobacco smoke, dust, and changes in air temperature. They used Foradil® (formoterol fumarate) and Asmanex® (mometasone fuorate) twice a day to control their asthma, and monitored their pulmonary function with a portable device for measuring peak expiratory flow. They had daily episodes of both productive and non-productive cough. In 5 trials, when they felt throat irritation and a desire to cough, placement of 1 to 3 mg of (R)-2-[((1R,2S,5R)-2-isopropyl-5-methyl-cyclohexanecarbonyl)-amino]-propionic acid ethyl ester) provided rapid relief and was described as soothing and removed “tightness” in the chest. Peak expiratory flow improved from 320 L/min to 370 L/min. In 3 episodes where the test substance was administered in the midst of a productive cough spell, no significant effects were observed and the subject said that the applied compound had been expectorated. The subjective response to the long-acting NACE compound was definitely favourable. The subject remarked that the best time to use the NACE compound was after inhaling the crystalline Foradil® because this inhaled drug irritated their throat. Menthol lozenges were not effective for their airway discomfort because they only had mild anti-irritant actions and the sugar content of the lozenges interfered with their appetite for food.
# [2] = tested on: periorbital skin; test: Irritancy near the eyes, ointment applied to periorbital skin; type: in vivo, human; conditions: Table 1 summary
# Source text: The ointment is also applied to the periorbital skin (upper and lower eyelids and on skin adjacent to the lateral canthus) for tests of irritancy near the eyes, and the subject is asked if irritation is present or absent. The intensity of the eye sensation is not rated. For tests of irritancy near the eyes, the ointment was applied to the periorbital skin (upper and lower eyelids and on skin adjacent to the lateral canthus), and the subject asked if irritation is present or absent. The intensity of the eye sensation is not rated, but just noted as being present or absent.
# [3] = tested on: oral cavity; test: Oral cavity test, substance placed on dorsal surface of the tongue; type: in vivo, human
# Protocol: The subject is instructed to close and hold the substance in the mouth for at least 10 seconds and not to swallow. The description of sensations is then recorded at 5 minute intervals.
# The compounds of Formula (1) and (2) are white crystalline solids at room temperatures. These compounds were tested as such, or mixed 1:1 with powdered or granulated sugar. The test substances were applied at 1 to 5 mg on the mid-point of the dorsal surface of the tongue using a metal spatula or a plastic applicator. After depositing the test substance on the tongue, the subject was instructed to keep the mouth closed and allow the fluids of the mouth to inter-mix with the test substance and to distribute it to the back of the mouth (oropharynx). The presence and duration of subjective sensations from the mouth was then noted.
# In normal subjects, the effects of the D-Ala methyl and ethyl ester compounds falling within Formula (1) ((R)-2-[((1R,2S,5R)-2-isopropyl-5-methyl-cyclohexanecarbonyl)-amino]-propionic acid methyl or ethyl ester)) were examined. Three doses of 1, 2 and 4 mg per application were examined and compared to a similar dose of the L-Ala methyl or ester analog ((S)-2-[((1R,2S,5R)-2-isopropyl-5-methyl-cyclohexanecarbonyl)-amino]-propionic acid methyl or ethyl ester). At the 2 or 4 mg dose, all compounds produced pleasant and robust cooling sensations on the tongue, extending down to the back of throat, and lasted for about 30 minutes and longer. The onset effect was usually within 30 seconds of application.
# [4] = tested on: skin above the upper lip; test: Cooling sensation on facial skin, ointment applied to skin above the upper lip; type: in vivo, human; set-up: key to refreshing cooling and absence of skin irritation or eye irritation (“perfect cool”): (*) denotes compounds with refreshing cooling and absence of skin irritation or eye irritation after facial skin or periorbital applications; a “perfect cool.”; conditions: for Duration of Skin Cooling: 40 mM (1% wt/vol) ointment; for Duration of Skin Cooling / Duration of Action On-Off (minutes): On (onset) / Duration of Action On-Off (minutes): duration (offset minus onset) / Duration of Action On-Off (minutes): Off (offset): skin above upper lip; for Duration of Action On-Off (minutes): On (onset): 40 mM (~1% wt/vol) Aquaphor ointment, 40 to 70 mg, time to reach 2 units of coolness; for Duration of Action On-Off (minutes): duration (offset minus onset) / Duration of Action On-Off (minutes): Off (offset): 40 mM Aquaphor ointment; for Duration of Action On-Off (minutes): Off (offset): time when coolness drops below 2 units
# Source text: A reliable place for topical application is the skin above the upper lip (above the vermilion border of the lips), on the philtrum, lateral to the philtrum until the nasolabial folds, and on the lower nostrils (subnasale). This part of the face is known to be densely innervated with cold receptors, second only to the surfaces of the eyeball and anogenitalia. A second location is on or below the malar eminence (cheekbone). The skin above the cheekbone is thicker than above the lips, and therefore has a higher threshold for activation. At both loci, tingling, cool and cold sensations in the skin may be experienced and rated for time of onset and intensity.
# The intensity of the subjective skin sensation is rated as 0, 1, 2 or 3 with: 0 as no change; 1 as slight coolness, cold, or tingling; 2 as clear-cut signal of coolness, cold, or tingling; and 3 as robust cooling or cold. The intervals for recording sensations are 5 to 10 minutes, until two successive zeroes are obtained. The results (shown in FIGS. 1 and 2) are averaged values of 4 to 6 separate trials in the same individual. The data are plotted using SigmaPlot® (Systat Software, Point Richmond Calif.) and a smoothing function with a negative exponential was used for analysis and statistical fit of the results. Confirmatory trials of cooling action of the long-acting NACE compounds were obtained in 2 to 4 individuals but not quantified for some because of the large number of chemicals that were evaluated.
# (§1) The onset of drug action is taken as the time to reach 2 units of coolness intensity, and offset of drug action is the time when coolness intensity drops below 2, after previously surpassing 2 units. The duration of cooling action is defined as the offset time minus the onset time. […] The quality of the sensation is noted, for example, as pure refreshing coolness, or if the sensation is accompanied by irritation (stinging or burning). The quality of the sensation is not rated for intensity.
# For bioassay on the skin, approximately 30 mg was stirred and dissolved in 3 g of warm liquid Aquaphor® ointment to a yield a 40 mM (˜1% wt/vol) ointment. The exact amount was adjusted so that the molar equivalent was about 35 to 40 mM. After cooling, 40 to 70 mg of the solid ointment was placed on the tip of a plastic stick and applied to the skin above the upper lip, on the philtrum, and lateral to the philtrum, up to the nasolabial folds, of test subjects and the onset and duration of cooling sensations noted.
# The intensity of the subjective skin sensation was rated as 0, 1, 2 or 3 with: 0 as no change; 1 as slight coolness, cold, or tingling; 2 as clear signal of coolness, cold, or tingling; and 3 as robust cooling or cold. The intervals for recording sensations were 5 to 10 minutes, until two successive zeroes were obtained. The results (shown in FIGS. 1 and 2) are averaged values of 4 to 6 separate trials in the same individual. The data are plotted using SigmaPlot® (Systat Software, Point Richmond, Calif., USA) and a smoothing function with a negative exponential was used for analysis and statistical fit of the results.
# as §1, with “was” for “is”, “was also noted: such” for “is noted, for example,”
# Test compounds were singly applied to the skin above the upper lips at a 40 to 70 mg dose of a 1% wt/vol ointment.
# [5] = tested on: tongue; conditions: Watson et al., filter paper on tongue, 6 subjects; cited from earlier work
# [6] = tested on: asthma cough; test: Study 9: asthmatic cough, powder on the tongue; type: in vivo, human; conditions: continued use
# Source text: A person with a documented 31-year history of asthma attacks volunteered to test one of the compounds falling within Formula (1). They were extremely sensitive to agents such as tobacco smoke, dust, pollen, odors, down/woolen materials, house cleansing products, pets, and sudden change of air temperature, and reacted with violent coughing, mucus secretions, wheezing, choking, and shortness of breath. At the time of this trial, they were taking these medications for their condition: theophylline, Allegra®, Advair®, Intal®, and Singulair®. In 5 trials, during a coughing spree, they placed one to two mg of 95%+ pure powder of a D-Ala ethyl ester falling within Formula (1) ((R)-2-[((1R,2S,5R)-2-isopropyl-5-methyl-cyclohexanecarbonyl)-amino]-propionic acid ethyl ester)) on the mid-portion of their tongue. They reported a soothing and cool sensation with a slight taste similar to Eucalyptus oil in their mouth and throat. Coughing stopped after 3 to 5 minutes and breathing was normal. […] In three trials when the compound was applied at night, they slept through the night without being awakened by cough. Their spouse remarked that, in over 30 years of marriage, this was the first time that they had seen an effective medication for their cough. […]
# [7] = tested on: cough; test: Study 8: cough in cigar smokers, powder on the tongue; type: in vivo, human
# Source text: Two males, were inveterate cigar smokers consuming 3 to 5 cigars per day. They both had frequent bouts of dry, non-productive, hacking coughs. At night, there were episodes of insomnia characterized by difficulties in breathing, an oppressive pressure on the chest and throat, and subsequent awakening with sensations of choking. During the day, a frequent and persistent sensation was that of tickling, irritative feelings in the back of the throat that led to coughing.
# In 20 trials, 10 trials per subject, two mg of 95%+pure powder of a D-Ala ethyl compound falling within Formula (1) (R)-2-[((1R,2S,5R)-2-isopropyl-5-methyl-cyclohexanecarbonyl)-amino]-propionic acid ethyl ester) was placed on the mid-portion of the tongue of these two subjects. Both subjects reported relief from the desire to cough within 1 minute after application. Sensations of robust coolness in the back of the throat was noted and lasted for about 30 minutes. Applications of similar amounts of powdered sugar were not effective, but the placebo could be clearly distinguished from the active compound because of the absence of cooling sensations.
# After application of test substance, the absence of irritation and itching at the back of the throat (cough signals) lasted for about 4 to 5 hours and the individual was observed not to cough for 6 to 8 hours. […] This therapeutic effect occurred when the test substance no longer elicited cooling sensations in the oropharynx.
# [8] = tested on: tongue; test: Threshold for cooling on the tongue; type: in vivo, human; conditions: threshold for cooling on the tongue
# Protocol: Watson et al. (U.S. Pat. No. 4,178,459) tested the properties of N-substituted p-menthane carboxamides on volunteers by putting filter paper (1×1 cm), impregnated with a known amount of compound, onto the dorsal surface of the tongue of the test subject. After 30 seconds, the subject was required to report presence or absence of a cooling effect. […] The average threshold of (−)-menthol for 6 subjects was 0.25 μg, but there was a 100-fold variation in individual sensitivity. As noted above, coolness signals detected from the dorsal surface of the tongue may be confounded by gustatory, olfactory, and other variables, as well as by dilution from saliva. The octanol/water partition coefficients (given in log P units) for a number of compounds were determined and are shown in Table 7, together with the threshold for cooling on the tongue tested at 40 mM. […] A longer duration of action was not precisely matched with log P values.
# [9] = Octanol/water partition coefficient; type: physicochemical
# Protocol: The octanol/water partition coefficients (given in log P units) for a number of compounds were determined and are shown in Table 7, together with the threshold for cooling on the tongue tested at 40 mM. […] A longer duration of action was not precisely matched with log P values.
# [10] = molecular target: T1, TRP-M8 (Homo sapiens, UniProt Q7Z2W7); conditions: cited from earlier work
# T1 construct: expressed in transfected cells
# T1 sequence (Q7Z2W7 whole entry, species assumed): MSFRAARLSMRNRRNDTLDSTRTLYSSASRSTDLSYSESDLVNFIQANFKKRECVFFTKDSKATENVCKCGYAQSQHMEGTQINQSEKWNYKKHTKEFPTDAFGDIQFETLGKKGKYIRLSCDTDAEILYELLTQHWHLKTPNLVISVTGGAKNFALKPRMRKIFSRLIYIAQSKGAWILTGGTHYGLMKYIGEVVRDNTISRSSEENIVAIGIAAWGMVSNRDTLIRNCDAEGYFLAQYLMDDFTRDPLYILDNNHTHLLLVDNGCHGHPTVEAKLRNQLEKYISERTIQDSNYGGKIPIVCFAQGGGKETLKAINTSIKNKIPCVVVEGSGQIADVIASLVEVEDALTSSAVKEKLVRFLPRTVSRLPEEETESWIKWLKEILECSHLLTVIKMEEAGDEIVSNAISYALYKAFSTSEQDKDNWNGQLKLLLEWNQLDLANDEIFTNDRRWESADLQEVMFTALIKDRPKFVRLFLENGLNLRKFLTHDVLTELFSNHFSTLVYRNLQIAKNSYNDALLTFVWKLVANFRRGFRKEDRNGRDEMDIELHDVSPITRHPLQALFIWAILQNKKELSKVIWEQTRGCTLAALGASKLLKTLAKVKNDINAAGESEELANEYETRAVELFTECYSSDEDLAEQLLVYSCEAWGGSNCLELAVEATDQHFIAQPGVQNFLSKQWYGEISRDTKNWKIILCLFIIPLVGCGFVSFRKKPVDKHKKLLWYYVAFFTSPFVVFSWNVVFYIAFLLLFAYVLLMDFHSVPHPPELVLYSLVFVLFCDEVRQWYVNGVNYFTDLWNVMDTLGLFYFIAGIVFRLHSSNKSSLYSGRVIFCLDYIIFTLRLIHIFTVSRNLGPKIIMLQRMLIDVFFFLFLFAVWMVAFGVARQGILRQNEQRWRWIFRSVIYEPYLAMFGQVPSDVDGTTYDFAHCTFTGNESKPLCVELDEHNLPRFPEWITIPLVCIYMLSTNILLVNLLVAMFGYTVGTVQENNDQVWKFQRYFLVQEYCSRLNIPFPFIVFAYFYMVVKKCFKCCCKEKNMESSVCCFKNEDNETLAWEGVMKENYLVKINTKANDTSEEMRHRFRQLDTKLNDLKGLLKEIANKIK
smiles,measurement,setting,value
"CCOC(=O)[C@@H](C)NC(=O)[C@@H]1C[C@H](C)CC[C@H]1C(C)C [(R)-2-[((1R,2S,5R)-2-isopropyl-5-methyl-cyclohexanecarbonyl)-amino]-propionic acid ethyl ester]",Peak expiratory flow,"[1]; 1 to 3 mg, improved from 320 L/min",370 L/min
same,"relief of throat irritation, desire to cough and airway discomfort",[1]; asthmatic,rapid relief
"CC(C)[C@@H]1CC[C@@H](C)C[C@H]1O [(−)-menthol, 1R-(1α-2β-5α)-5-methyl-2-(1-methylethyl)cyclohexanol, reference compound]",Eye Irritancy,[2],yes
same,Cooling on tongue,[3]; Table 1 summary,yes
same,Duration of Skin Cooling,[4],0.3 h
same,Acts for >1 hour at 40 mM,[4]; Table 1 summary,no
same,Cooling on skin of face,[4]; Table 1 summary,yes
same,“perfect” cooling experience,[4]; Table 1 summary,no
same,average threshold for cooling on the tongue,[5],0.25 µg
"CCOC(=O)[C@@H](C)NC(=O)[C@@H]1C[C@H](C)CC[C@H]1C(C)C [D-Ala Et Ester, (R)-2-[((1R,2S,5R)-2-isopropyl-5-methyl-cyclohexanecarbonyl)-amino]-propionic acid ethyl ester]",recurrence of asthmatic coughing attacks,[6],have not recurred with any severity for one month
same,duration of cooling sensations on the tongue,"[3]; dose of 1 to 2 mg, normal subjects",about 30 minutes
same,Duration of Skin Cooling,[4],2.4 h
same,Duration of Action On-Off (minutes): On (onset),[4],1 min
same,Duration of Action On-Off (minutes): duration (offset minus onset),[4],142 min
same,Duration of Action On-Off (minutes): Off (offset),[4],143 min
same,refreshing cooling and absence of skin irritation or eye irritation (“perfect cool”),[4]; after facial skin or periorbital applications,D-Ala Et Ester (*)
same,time the desire to cough was removed,"[7]; after 4 or 6 applications within 2 days, continued smoking",at least 5 days
same,duration of robust coolness in the back of the throat,[7]; two mg powder on tongue,about 30 minutes
same,time to relief from the desire to cough,"[7]; two mg powder on tongue, 20 trials in 2 subjects",≤ 1 min
"COc1ccc(NC(=O)C2CC(C)CCC2C(C)C)cc1 (stereo not shown) [WS-12, N-p-methoxyphenyl-p-menthane-carboxamide, reference compound]",Threshold tongue,[8],0.2 µg
same,logP,[9],5.3
same,Duration of Action On-Off (minutes): On (onset),[4],13 min
same,Duration of Action On-Off (minutes): duration (offset minus onset),[4],25 min
same,Duration of Action On-Off (minutes): Off (offset),[4],38 min
same,potency at TRP-M8,[10],more potent at TRP-M8 than WS-5; also recorded: potent
